Measured values taken from US11083735B2, “Methods for treating sleep disorders, sleep disturbances, and related symptoms using aminosterol compositions” (Enterin, Inc., priority 2017, dated 2021).
“And” between values parts separate entries of the source, which are not always exact repeats. Identical values can stand only once.

Experiments:
[1] = tested on: patients with PD and constipation; experiment: Phase 2 trial Stage 1 (single escalating dose): prokinetic response (CSBM within 24 hours); type: in vivo, human
Description: FIGS. 16A-16B show prokinetic activity of squalamine (ENT-01, a synthetic squalamine salt comprising squalamine as the active ion). […] Patients with baseline CSBM<1 required a higher dose (mean, 192 mg) of squalamine than patients with CSBM≥1 (mean, 120 mg).
Tolerability limits included diarrhea or vomiting.

[2] = tested on: patients with PD and constipation; experiment: Phase 2 trial: adverse events, all dosed patients (Stage 1 and 2); type: in vivo, human
Description: Safety and Adverse Event (AE) Profile: Fifty patients were enrolled and 44 were dosed. In Stage 1, 10 patients were dosed, 1 (10%) withdrew prior to completion and 9 (90%) completed dosing. In stage 2, 6 (15%) patients had ≥3 CSBM/week at the end of the run-in period and were excluded, 34 patients were dosed and bowel response was assessable in 31 (91%). Two patients (5.8%) were terminated prior to completion because of recurrent dizziness, and 3 others withdrew during dosing (8.8%): 2 because of diarrhea and 1 because of holiday. Fifteen patients were randomized.
Most AEs were confined to the GI tract (88% in Stage 1 and 63% in Stage 2). The most common AE was nausea which occurred in 4/10 (40%) patients in Stage 1 and in 18/34 (52.9%) in Stage 2 (Table 6). Diarrhea occurred in 4/10 (40%) patients in Stage 1 and 15/34 (44%) in Stage 2. One patient withdrew because of recurrent diarrhea. Other GI related AEs included abdominal pain 11/44 […], flatulence 3/44 (6.8%), vomiting 3/44 (6.8%), worsening of acid reflux 2/44 (4.5%), and worsening of hemorrhoids 1/44 (2.2%). […] The only other noteworthy AE was dizziness 8/44 (18%). Dizziness was graded as moderate in one patient who was receiving an alpha-adrenergic blocking agent (Terazosin). This patient was withdrawn from the study and recovered spontaneously.

[3] = tested on: patients with PD and constipation; details: in vivo
Description: In Stage 2, 34 patients were evaluated. […] This dose was then maintained (“fixed dose”) for an additional 3-5 days. After the “fixed dose”, these patients were randomly assigned to either continued treatment at that dose or to a matching placebo, for an additional 4-6 days prior to a 2-week wash-out.
A second cohort of 19 patients received squalamine (ENT-01) escalating from 100 mg/day to a maximum of 250 mg/day without subsequent randomization to squalamine (ENT-01) or placebo. Criteria for dose selection and efficacy were identical to those used in the previous cohort.
(§1) Adverse events were coded using the current version of MedDRA. Severity of AEs were assessed by investigators according to CTCAE (v4.03): Grade 1 is labeled as Mild, Grade 2 as Moderate, and Grade 3 and above as Severe. […] The number (percentage) of subjects who experienced an AE during escalation and fixed dosing periods were summarized by dose level and overall for each stage. The denominator for calculating the percentages were based on the number of subjects ever exposed to each dose and overall.

[4] = target: αS (Homo sapiens, UniProt P37840); details: in vitro (Perni et al. 2017); cited from earlier work
[5] = tested on: patients with PD and constipation; experiment: Phase 2 trial Stage 1: adverse events
Description: In Stage 1, ten (10) PD patients received a single escalating dose of squalamine (ENT-01) every 3-7 days beginning at 25 mg and continuing up to 200 mg or the limit of tolerability, followed by 2-weeks of wash-out. Duration of this part of the trial was 22-57 days. The 10 subjects in the sentinel group were assigned to Cohort 1 and participated in 8 single dosing periods. Tolerability limits included diarrhea or vomiting.
Each dose period was staggered, so that subjects 1-2 were administered a single dose of the drug at the lowest dose of 25 mg. Once 24 hours have elapsed, and provided there are no safety concerns, the patient was sent home and brought back on day 4-8 for the next dose. During the days the subjects are home, they completed the daily diaries and e-mailed them to the study coordinators. Subjects 3-10 were dosed after the first 2 subjects have been observed for 72 hours, i.e. on Day 4. Subjects 1-2 were also brought back on Day 4-8 and given a single dose of 50 mg. Once another 24 hours have elapsed and provided there are no safety concerns, the patients were all sent home and instructed to return on Day 7 for the next dosing level. This single dosing regimen was continued until each subject was given a single dose of 200 mg or has reached a dose limiting toxicity (DLT). DLT was the dose which induces repeated vomiting, diarrhea, abdominal pain or symptomatic postural hypotension within 24 hours of dosing.
as §1

[6] = tested on: patient with sleeping disorder; experiment: Example 2: patient with sleeping disorder and constipation, oral squalamine, sleep diary and I-button; type: in vivo, human
Description: The patient had very significant delay in sleep onset, fragmented sleep, thrashing of arms and legs (RBD) and daytime somnolence. On polysomnography, they had apneic spells up to 17 seconds in duration with an oxygen desaturation as low as 93%. The patient slept no more than 3-4 hours, awakened 3-4 times, and each awakening lasted 30-60 minutes. Medications included clonazepam and laxatives.
Clonazepam and laxatives were discontinued and they were started on 100 mg of squalamine every other day at bedtime. This regimen had no effect on their sleep or constipation. […] They were then switched to 150 mg daily taken in the morning.
The patient's skin temperature was also monitored for fluctuations at the wrist using a temperature sensor (I-button) mounted on a wrist-band. Skin temperature at the wrist increases from about 30° C. during the day to 36° C. at night in normal individuals. This diurnal variation of skin temperature correlates well with sleep-wake cycles. When it reaches 34° C., subjects fall asleep; during the night, if it falls below 34° C., subjects awaken. During the day, skin temperature is below 30° C. and subjects remain awake.
Once the patient's Circadian rhythm was restored, the patient started sleeping better at night and stopped falling asleep during the day.

[7] = Stage 1, 10 dosed, Unrelated to ENT-01
[8] = 150 mg daily taken in the morning

For `CC(C)[C@@H](CC[C@@H](C)[C@H]1CC[C@H]2[C@@H]3[C@H](O)C[C@H]4C[C@@H](NCCCNCCCCN)CC[C@]4(C)[C@H]3CC[C@]12C)OS(=O)(=O)O` (single isomer, unassigned; ent-01) [ENT-01], the cumulative response rate ([1]; 25 mg) was 25%, the cumulative response rate ([1]; 200 mg (maximum)) was 80% and the worsening of hemorrhoids ([2]; 1/44) was 2.2%. For the same compound, the “worsening of acid reflux” value ([2]; 2/44) was 4.5%, the flatulence ([2]; 3/44) was 6.8% and the vomiting ([2]; 3/44) was 6.8%. For the same compound, the dizziness ([2]; 8/44) was 18%, the abdominal pain ([2]; 11/44) was 32% and the “Eye infection, Moderate” value [3] was 0 n, %. The “formation of aggregates of αS” value [4] was “inhibit the formation of aggregates”, the “AEs confined to the GI tract” value ([5]; Stage 1) was 88% and the “Diarrhea, patients” value ([5]; Stage 1, 4/10) was 40%. For the same compound, the “nausea, patients” value ([5]; Stage 1, 4/10) was 40%, the “Abdominal pain, Mild” value ([5]; Stage 1, 10 dosed) was 2(20) n, % and the “Abdominal pain, Moderate” value ([5]; Stage 1, 10 dosed) was 3(30) n, %. The “Blood in urine, Moderate” value ([5]; Stage 1, 10 dosed) was 0 n, %, the “Diarrhea, Mild” value ([5]; Stage 1, 10 dosed) was 1(10) n, % and the “Diarrhea, Moderate” value ([5]; Stage 1, 10 dosed) was 3(30) n, %. The “Diarrhea, Severe” value ([5]; Stage 1, 10 dosed) was 0 n, %, the “Difficulty falling asleep, Mild” value ([5]; Stage 1, 10 dosed) was 0 n, % and the “Difficulty falling asleep, Moderate” value ([5]; Stage 1, 10 dosed) was 0 n, %. The “Dizziness, Mild” value ([5]; Stage 1, 10 dosed) was 0 n, %, the “Dizziness, Moderate” value ([5]; Stage 1, 10 dosed) was 0 n, % and the “Flatulence, Mild” value ([5]; Stage 1, 10 dosed) was 2(20) n, %. The “Flatulence, Moderate” value ([5]; Stage 1, 10 dosed) was 0 n, %, the “Headache, Mild” value ([5]; Stage 1, 10 dosed) was 1(10) n, % and the “Headache, Moderate” value ([5]; Stage 1, 10 dosed) was 0 n, %. For the same compound, the “Increased urinary frequency, Mild” value ([5]; Stage 1, 10 dosed) was 0 n, %, the “Increased urinary frequency, Moderate” value ([5]; Stage 1, 10 dosed) was 0 n, % and the “Loss of appetite, Moderate” value ([5]; Stage 1, 10 dosed) was 0 n, %. The “Lower GI bleed, Severe” value ([5]; Stage 1, 10 dosed) was 0 n, %, the “Nausea, Mild” value ([5]; Stage 1, 10 dosed) was 4(40) n, % and the “Nausea, Moderate” value ([5]; Stage 1, 10 dosed) was 0 n, %. For the same compound, the “Skin lesions-rash, Mild” value ([5]; Stage 1, 10 dosed) was 0 n, %, the “Skin lesions-rash, Moderate” value ([5]; Stage 1, 10 dosed) was 0 n, % and the “Urinary retention, Mild” value ([5]; Stage 1, 10 dosed) was 0 n, %. The “Urinary retention, Moderate” value ([5]; Stage 1, 10 dosed) was 0 n, %, the “Vomiting, Mild” value ([5]; Stage 1, 10 dosed) was 1(10) n, % and the “Vomiting, Moderate” value ([5]; Stage 1, 10 dosed) was 0 n, %. The “Worsening acid reflux, Mild” value ([5]; Stage 1, 10 dosed) was 0 n, %, the “Worsening acid reflux, Moderate” value ([5]; Stage 1, 10 dosed) was 0 n, % and the “Worsening hemorrhoid, Mild” value ([5]; Stage 1, 10 dosed) was 0 n, %. The “Worsening hemorrhoid, Moderate” value ([5]; Stage 1, 10 dosed) was 0 n, %, the “Blood in urine, Mild” value [5, 7] was 1(10) n, % and the “Loss of appetite, Mild” value [5, 7] was 1(10) n, %. The “Common adverse events by dose: Diarrhea” value ([5]; Stage 1, dose 25 mg) was 1, the “Common adverse events by dose: Nausea” value ([5]; Stage 1, dose 25 mg) was 0 and the “Common adverse events by dose: Vomiting” value ([5]; Stage 1, dose 25 mg) was 0. For the same compound, the “Common adverse events by dose: Diarrhea” value ([5]; Stage 1, dose 50 mg) was 1, the “Common adverse events by dose: Nausea” value ([5]; Stage 1, dose 50 mg) was 0 and the “Common adverse events by dose: Vomiting” value ([5]; Stage 1, dose 50 mg) was 0. The “Common adverse events by dose: Diarrhea” value ([5]; Stage 1, dose 75 mg) was 1, the “Common adverse events by dose: Nausea” value ([5]; Stage 1, dose 75 mg) was 0 and the “Common adverse events by dose: Vomiting” value ([5]; Stage 1, dose 75 mg) was 0. For the same compound, the “Common adverse events by dose: Diarrhea” value ([5]; Stage 1, dose 100 mg) was 0, the “Common adverse events by dose: Nausea” value ([5]; Stage 1, dose 100 mg) was 1 and the “Common adverse events by dose: Vomiting” value ([5]; Stage 1, dose 100 mg) was 1. The “Common adverse events by dose: Diarrhea” value ([5]; Stage 1, dose 125 mg) was 1, the “Common adverse events by dose: Nausea” value ([5]; Stage 1, dose 125 mg) was 2 and the “Common adverse events by dose: Vomiting” value ([5]; Stage 1, dose 125 mg) was 1. The “Common adverse events by dose: Diarrhea” value ([5]; Stage 1, dose 150 mg) was 1, the “Common adverse events by dose: Nausea” value ([5]; Stage 1, dose 150 mg) was 0 and the “Common adverse events by dose: Vomiting” value ([5]; Stage 1, dose 150 mg) was 0. For the same compound, the “Common adverse events by dose: Diarrhea” value ([5]; Stage 1, dose 175 mg) was 1, the “Common adverse events by dose: Nausea” value ([5]; Stage 1, dose 175 mg) was 1 and the “Common adverse events by dose: Vomiting” value ([5]; Stage 1, dose 175 mg) was 0. The “Common adverse events by dose: Diarrhea” value ([5]; Stage 1, dose 200 mg) was 0, the “Common adverse events by dose: Nausea” value ([5]; Stage 1, dose 200 mg) was 2 and the “Common adverse events by dose: Vomiting” value ([5]; Stage 1, dose 200 mg) was 0.

For `CC(C)[C@@H](CC[C@@H](C)[C@H]1CC[C@H]2[C@@H]3[C@H](O)C[C@H]4C[C@@H](NCCCNCCCCN)CC[C@]4(C)[C@H]3CC[C@]12C)OS(=O)(=O)O` [squalamine], the “effect on sleep or constipation” value ([6]; 100 mg every other day at bedtime) was “no effect”, the “time to fall asleep (I-button)” value ([6]; 100 mg given at night, FIG. 8A) was 2.5 h and the “total sleep per night (I-button)” value ([6]; 100 mg given at night, FIG. 8A) was 3 h. The Delay ([6]; 125 mg switch, days 114-118) was 45 min, the Fragments awake ([6]; 125 mg switch, days 114-118) was 60 min and the Total hrs sleep ([6]; 125 mg switch, days 114-118) was 7.5 h and 6.5 h and 8.0 h. The “total hours of sleep (I-button)” value ([6]; 150 mg) was 4 to 5 h, the Total hrs sleep ([6]; 150 mg daily am dose, Mean row covers all on-treatment days (pre mean 6.2)) was 6.0 h and the Fragments awake ([6]; 150 mg daily am dose, Mean row covers all on-treatment days (pre mean 90)) was 120 min. For the same compound, the “effect on sleep or constipation” value ([6]; 150 mg daily at bedtime) was “without effect”, the “arms and legs thrashing in the night” value [6, 8] was “stopped thrashing” and the bowels [6, 8] was “regularized almost immediately”. For the same compound, the “delay in sleep onset (I-button)” value ([6]; 150 mg, FIG. 8C) was 1 h, the “delay in sleep onset (I-button)” value ([6]; 150 mg, FIG. 8D) was 0.5 h and the Sleep efficiency ([6]; On treatment (Pre-treatment 74)) was 82%. For the same compound, the “Fragments awake during night” value ([6]; On treatment (Pre-treatment 90)) was 56 min, the “Delay in falling asleep” value ([6]; On treatment (Pre-treatment 146)) was 60 min and the “diurnal rhythm (I-button, periodogram, FIG. 12)” value ([6]; several months into treatment) was “clearly been restored”.
